Assay results reported in a melting point compilation (Tetko et al.; mined from patent text by program, amines drawn as free bases though some values may be those of a salt).

| Structure (SMILES) | melting point [°C] |
| --- | --- |
| Cc1noc(NS(=O)(=O)c2cccc(Cl)c2Cl)c1Br | 166 to 169 |
| CC(C)(C)OC(=O)CN1CCC(C)(N)C1=O (centres undefined) | 72 to 77 |
| N#CCN(C1CC1)S(=O)(=O)Cc1cccc(C(F)(F)F)c1 | 70.1 to 71 |
| CNC(=O)c1ccc(NC(=O)OC(C)(C)C)cc1 | 185 |
| CCC(C)S(=O)(=O)NN(CCC(=O)O)C(=O)c1ccc2nc(CCC3CCNCC3)[nH]c2c1 (centres undefined) | 180 to 185 |
| CC(=O)OC1CSC(Oc2ccc(C)nc2-c2ccncc2)C(OC(C)=O)C1OC(C)=O (centres undefined) | 140 to 144 |
| CN1C(C)(C)CC(NC(=O)c2ccc(-c3nc4cc(Cl)c(Cl)cc4[nH]3)c(O)c2)CC1(C)C | > 250 |
| CCOC(=O)c1cccc(NC(=O)N2CCc3cc(SC)c(C(F)(F)F)cc32)c1 | 195 to 197 |
| O=C1NCCc2ccc(OCCCCCl)cc2N1 | 177 to 179 |
| c1cnc(-c2nc(C3CC3)no2)cn1 | 61 to 64 |
| Clc1cnc2c(C(Cl)(Cl)Cl)cc(Cl)cc2c1 | 198 |
| CCOC(=O)N1CCC(=C2c3ccc(Cl)cc3CCn3ccnc32)CC1 | 140 |
| CCCN(CCC)C1Cc2c[nH]c3ccc(C(=O)C(C)C)c(c23)C1 (centres undefined) | 128 |
| CC1(C)CCC(C)(C)c2cc(CCc3ncccn3)c(C=O)cc21 | 78 to 84.5 |
| CCNC(=O)c1c([Si](C)(C)C)ccc(C(=O)OC)c1Cl | 103 to 104 |
| Oc1ccc(Br)c2c1CCCC2 | 83 to 85 |
| CCCCNc1cc(C(=O)O)cc(S(N)(=O)=O)c1Oc1ccc(S(N)(=O)=O)cc1 | 265 |
| CC(=O)c1cnn(O)c1-c1ccc(C(=O)O)cc1C | > 250 |
| CN(C)CC1CCCCN1CCCNC(=O)N1c2ccccc2C(=O)Nc2cccnc21 (centres undefined) | 160 to 162 |
| COc1ccc(-c2nc3nccnc3[nH]2)c(OC)c1 | 210 to 215 |
| COC(=O)C(C(=O)OC)c1cccc2c1NC(=O)C2 | 161 to 162 |
| CCCN1CCC(c2ccccc2)=C(C(=O)NCc2ccccc2)C1 | 96 to 98 |
| C=CCOc1cc(-n2nc(C)c(C)c2C)c(F)cc1Cl | 97 to 99 |
| Clc1nn2cnnc2c2c1C1CCC2CC1 | 137 to 140 |
| O=C(NCc1ccc(/C=C/C(c2cc(Cl)c(Cl)c(Cl)c2)C(F)(F)F)cc1Cl)C(=O)NCC(F)(F)F (centres undefined) | 161 to 163 |
| COCCOC(=O)c1cc(NC(=O)OCc2ccccc2)ccc1OCCOC | 104 to 105 |

| Structure (SMILES) | melting point [°C] |
| --- | --- |
| CC(=O)Oc1c(C(C)C)c(-c2ccc(F)cc2)c(O)c(C(C)C)c1C(C)C | 174 to 177 |
| Cc1cc(N2CCCC2)cc2c1C(=O)OC2=O | 222 to 225 |
| CCOC(=O)c1cnc2c(N)cccc2c1 | 94 to 96 |
| CC(C)n1c(=O)ccc2cnc(Nc3ccc(N4CCN(C)CC4)cc3)nc21 | 221 to 222 |
| COC(=O)CCCC#Cc1cc(Cl)ccc1NS(=O)(=O)c1ccc2nc(NC(C)=O)sc2c1 | 138 to 140 |
| O=C(O)CC1C2=C(CCCC2)C(=O)N1c1ccc(Cl)cc1 (centres undefined) | 177 to 178 |
| CCCCCCCCCCCCCCC(=O)C(=O)N[C@@H](CCCC)C(=O)NCC(=O)OC(C)(C)C | 38 to 39 |
| NC1CCc2ccccc2N(CC(=O)O)C1=O (centres undefined) | 147 to 150 |
| CC(C)(C)C(O)C(=Cn1ccnc1)Oc1ccc(F)cc1 (centres undefined) | 112 to 113 |
| CN1CCN(Cc2nnc(S)n2Cc2cccc(F)c2)CC1 | 180 |
| OC1CSC(Oc2cncc(-c3ccc(F)cn3)c2)C(O)C1O (centres undefined) | 166 to 190 |
| C=CCCn1ncc2c(N)c(C(=O)OCC=C)c(C)nc21 | 64 to 64.5 |
| O=C(c1ccc(F)cc1)C1(c2ccccc2)CCN(Cc2ccccc2)CC1 | 148 |
| ClC(Cl)=CCOc1cc(Cl)c(OCCC2COC(c3ccc(Cl)cc3)O2)c(Cl)c1 (centres undefined) | 84.1 |
| NC(=NCC(F)(F)F)Nc1nc(CCCCNc2nc3ccccc3[nH]2)cs1 | 183 to 186 |
| CC(CCCC(C)(C)C)C1CCC2C3C(=O)C=C4CC(O)CCC4(C)C3CCC12C (centres undefined) | 176 to 178 |
| Cc1ccc([N+](=O)[O-])c2c1CCC(C)O2 (centres undefined) | 83 to 85 |
| Cc1c(NC(=O)CC(C)(C)C)c(C)c2c(c1-c1nccs1)OCC2c1ccc(C(C)C)cc1 (centres undefined) | 164 to 166 |
| CC1(CC(=O)O)CCc2ccccc2C1=O (centres undefined) | 114 to 116 |
| CCOC(=O)Cc1coc2c(OC)ccc(C(=O)Cc3c(Cl)cncc3Cl)c12 | 105 to 115 |
| CC(C)C1Sc2ccccc2NC(=O)C1N (centres undefined) | 180 to 183 |
| CC1CC2(CC3CCC4C5CCC(=O)C5(C)CCC4C13C)OCCO2 (centres undefined) | 154 |
| NC(=O)NC1CCC(=O)c2ccsc21 (centres undefined) | 240 to 241 |
| CCCCc1c(C=O)ccc2c(OC)cccc12 | 61.5 to 62.5 |
| COCOC1CCC2(C)C(=CCC3C2CCC2(C)C(COCc4ccccc4)CCC32)C1 (centres undefined) | 75 to 76 |
| CON=Cc1nc(Nc2ccccc2)nc(C)c1C | 85 to 88 |

Further lines, results first:

| melting point [°C] | Structure (SMILES) |
| --- | --- |
| 127 to 130 | O=C1c2ccccc2C(=O)N1C(Cc1ccccc1)C[PH](=O)O (centres undefined) |
| 130 to 132 | C=CCOc1nc(N)nc(-c2ccccc2)c1-c1ccc(=O)n(C(C)C)n1 |
| 155 to 157 | O=C1c2cccc(-c3ccccc3)c2C2NCCN12 (centres undefined) |
| 168 to 169 | CN(Cc1ccccc1)C1CCN(C(=O)c2ccc(-n3cncn3)cc2)CC1 |
| 173 | CCCCOc1ccc(S(=O)(=O)C2(C(=O)O)CCN(Cc3ccc(OC)cc3)CC2)cc1 |
| 237 to 241 | Cc1ccccc1CCNC(=O)c1c(Cl)ccc2nc(N3CCC(C(=O)O)CC3)ccc12 |
| 171 to 172 | Cc1nnc(-c2ccc3occ(-c4ccc(S(=O)Cc5ccccc5C#N)cc4)c3c2)o1 (centres undefined) |
| 155 | Clc1cccc2cc3cccc(Cl)c3cc12 |
| 159 to 160 | COc1ccc(-n2cnc3ccc(-c4nnc(CCc5cccc(C(F)(F)F)c5)o4)cc32)cc1 |
| 233 to 235 | O=C(O)c1cccc(C(=O)C=Cc2ccc(OCc3ccc4ccccc4n3)cc2)c1O |
| 150 to 152 | CCCN1CC(c2ccc(F)cc2)=C(c2ccc(S(C)(=O)=O)cc2)C1=O |
| 173 to 176 | CC(C)COC(=O)Nc1cccc(Cn2ccc3cc(C(=O)O)ccc32)c1 |
| 208 | COc1ccccc1S(=O)(=O)c1c(NS(=O)(=O)c2ccc(C(C)(C)C)cc2)ncnc1OCCOc1ncc(Br)cn1 |
| 220 to 221 | CN(C)CC(=O)Nc1cccc(-c2cc(-c3ccccc3O)nc(NC(=O)c3cccs3)c2C#N)c1 |
| 134 to 137 | COCCOc1cc2ncnc(NC3=CC(=O)C(Oc4ccccc4C)=CC3=O)c2cc1OC |
| 159 to 161 | CC1Cc2cc3c(cc2C(C=Cc2ccc(N)cc2)=NN1)OCO3 (centres undefined) |
| 214 to 216 | CCOC(=O)c1cn(-c2ccc(F)cc2)c2cc(-c3cc(C)no3)ccc2c1=O |
| 213 to 215 | O=C(Nc1ccc(Cl)cc1)c1cc(Br)c2cccnc2c1O |
| 167 to 173 | O=C(C1CCCCCC1)N1c2ccccc2CCC1CN1CCN(c2cccc3[nH]ccc23)CC1 (centres undefined) |
| 125 to 135 | Cc1noc(NS(=O)(=O)c2ccccc2-c2ccc(-c3ncco3)cc2CN(C)C(=O)c2cccc(F)c2)c1C |
| 283 to 284 | CN(C)C(=O)c1nc(-c2cccnc2)nc2c1c1ccc(Cl)cc1n2C |
| 241 to 243 | Nc1c(-c2ccc(Cl)cc2)nc2ccc(F)cc2c1C(=O)O |
| 114 | COC(=O)C(C(=O)OC)C(C)(N)C(Cc1ccccc1[N+](=O)[O-])c1ccccc1 (centres undefined) |
| 126 | CC(C#N)c1ccc2nc(-c3ccccc3)ccc2c1 (centres undefined) |

| melting point [°C] | Structure (SMILES) |
| --- | --- |
| 88 to 90 | ClCCOc1ccc(/C=C/c2nc3ccccc3o2)cc1 |
| 182 to 184 | CC1(C)OCc2cc(Cl)cc(C(C)(O)c3cn(C(c4ccccc4)(c4ccccc4)c4ccccc4)cn3)c2O1 (centres undefined) |
| 167 to 169 | CC(=O)N(O)C(CS(=O)(=O)c1ccc(-c2cccc(CNC(=O)c3nc4ccccc4c(=O)[nH]3)c2)cc1)C(C)C (centres undefined) |
| 117 to 119 | O=C(Nc1cccnc1NCc1ccc(Cl)cc1)c1ccccc1Cl |
| 213 to 214 | COc1ccc2c(c1)sc1nc(Nc3ccccc3)nc(=Nc3ccccc3)n12 |
| 137 to 139 | CC(C)CCOc1c(-c2ccc(S(N)(=O)=O)cc2)cnn(-c2cccc(Cl)c2)c1=O |
| 135 to 137 | CCOC(=O)c1c(Sc2ccccc2)n(C2CC2)c2c(F)c(F)c(F)cc2c1=O |
| 97 to 99 | COC(=O)c1cccc(Oc2ccc([N+](=O)[O-])cc2C(=O)OC)c1 |
| 59 to 60 | CN(C)CCc1cccc(OCCCN2C(=O)c3ccccc3C2=O)c1 |
| 174 to 175 | CCOC(=O)c1[nH]c2cc(Cl)cc(Cl)c2c1N(Cc1ccccc1)C(=O)c1ccccc1 |
| 214 to 217 | OCCNc1nc2ccc(Cl)cc2c2nc(-c3ccco3)nn12 |
| 75 to 76 | Cc1cc(Cl)ccc1N=Cc1ccc(Cl)cc1 |
| 130 to 132 | Cc1ccc(C(O)CN(C)Cc2cc3c(=O)c(C(=O)NCc4ccc(Cl)cc4)cn(C)c3o2)o1 (centres undefined) |
| 146 to 148 | Oc1ccc(C(O)CNCCCn2cnc3ccccc32)cc1 (centres undefined) |
| 118 to 121 | CCc1cccc(C)c1CNc1cc(Cl)nc(Cl)c1[N+](=O)[O-] |
| 154 to 155 | COC(=O)c1cc(-c2ccc(S(C)(=O)=O)cc2)n(-c2ccc(F)cc2)c1C |
| 160 to 163 | CCN(CC)C(=O)COC(=O)c1cccc(NC(=O)C(CS)Cc2ccccc2)c1 (centres undefined) |
| 165 to 170 | COc1cc(Nc2nc3cccc(-c4cccnc4)c3o2)cc(OC)c1OC |
| 272 to 274 | COC(=O)Nc1nc(-c2ccccc2)c(-c2nc3ccccc3c(=O)n2-c2ccc(OC)cc2)s1 |
| 138 to 140 | O=C(c1ccc(Cl)c(Cl)c1)N1CCCC(c2ccc(Br)s2)=N1 |
| 130 to 131 | Cc1c(C)c2c(c(C)c1NC=O)CC(C)(CSc1ccccc1)O2 (centres undefined) |
| > 300 | Nc1nc2ccccc2c2c1ncn2Cc1ccncc1 |
| 40 to 44 | CNCCCOc1ccc(-c2nnc(CSCCOc3ccccc3)o2)cc1 |
